Reference: PubChem BioAssay (NCI)
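How tested: cells in 96-well plates exposed to compound for 48 hours at five concentrations. GI50 is the concentration that inhibits growth by half. At the TGI there is no net growth.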

Experiments:
Test in all cases: NCI tumour cell line growth inhibition, 48 h
A498 renal = test system: A498 renal
ACHN renal = test system: ACHN renal
CAKI-1 renal = test system: CAKI-1 renal
MDA-MB-231 breast = test system: MDA-MB-231 breast
OVCAR-3 ovarian = test system: OVCAR-3 ovarian
SK-OV-3 ovarian = test system: SK-OV-3 ovarian
SNB-19 CNS = test system: SNB-19 CNS
U251 CNS = test system: U251 CNS

Row | SMILES | TGI (A498 renal) [µM] | TGI (ACHN renal) [µM] | TGI (CAKI-1 renal) [µM] | TGI (MDA-MB-231 breast) [µM] | TGI (OVCAR-3 ovarian) [µM] | TGI (SK-OV-3 ovarian) [µM] | TGI (SNB-19 CNS) [µM] | TGI (U251 CNS) [µM] | GI50 (A498 renal) [µM] | GI50 (ACHN renal) [µM] | GI50 (CAKI-1 renal) [µM] | GI50 (MDA-MB-231 breast) [µM] | GI50 (OVCAR-3 ovarian) [µM] | GI50 (SK-OV-3 ovarian) [µM] | GI50 (SNB-19 CNS) [µM] | GI50 (U251 CNS) [µM]
1 | CCC(c1ccccc1)c1cc(C(C)(C)C)cc(C(C)(C)C)c1O (stereo not given) | 33.9 | 32.6 | 29.8 | 31.9 | 27.2 | 28.1 | 32.7 | 31.5 | – | – | – | – | – | – | – | –
2 | O=C1/C(=C/c2ccc(C(F)(F)F)cc2)COc2ccc(O)c(O)c21 | 4.16 | 2.31 | 2.38 | 2.65 | 1.84 | 10.8 | 2.87 | 2.05 | 2.11 | 1.11 | 1.11 | 1.18 | 0.514 | 2.89 | 1.48 | 0.703
3 | O=C1C=CC(=O)c2c1nc(CBr)[nH]c2=O | > 100 | > 100 | > 100 | > 100 | > 100 | > 100 | – | > 100 | – | – | – | – | – | – | – | –
4 | C=CCSC(C)=O | > 100 | > 100 | > 100 | > 100 | > 100 | > 100 | > 100 | > 100 | – | – | – | – | – | – | – | –
5 | COc1ccc(-c2c(-c3ccc(C#N)c(F)c3)nc(N3CCC(N)CC3)n(C)c2=O)cc1F | – | 41.5 | 30.6 | 26.7 | 77.4 | 45.8 | > 100 | 32.8 | – | 15.8 | 13.8 | 12.5 | 21.7 | 15.8 | 31.6 | 14.6
6 | CN(C)c1ccc2[nH]c3c(C(N)=O)cc(=O)c(=O)c=3oc2c1 | 9.5 | 8.98 | > 100 | 8.67 | 6.85 | > 100 | 9.81 | 9.8 | 2.68 | 0.767 | 3.48 | 1.7 | 0.508 | 3.54 | 2.34 | 1.8
7 | CCOCCOCCOCCOCCOCCOCCOCCOCCOCCO (tested in a mixture with another compound) | 19.1 | – | 18.9 | – | 4.63 | 13.4 | – | 4.47 | 1.08 | – | 1.42 | – | 0.476 | 3.91 | – | 0.987
8 | CCS(=O)(=O)c1ccc(OC)c(Nc2ncc(-c3cccc(F)c3)o2)c1 | > 25 | > 25 | > 25 | > 25 | > 25 | > 25 | > 25 | > 25 | 0.34 | > 25 | > 25 | > 25 | > 25 | > 25 | > 25 | > 25
9 | COc1ccc2c(c1)C(=O)c1c-2n(CCCN(C)C)c(=O)c2cc([N+](=O)[O-])ccc12 | 0.694 | 0.103 | – | 2.83 | 0.748 | 0.666 | 7.93 | 1.07 | 0.036 | < 0.01 | < 0.01 | 1.08 | 0.0191 | < 0.01 | < 0.01 | < 0.01
